Measured values: patent publication US10711004B2 (Genentech, Inc., priority 2018, dated 2020)
Read-outs that look alike come from different tables or passages of the source.

Molecular target: human TRPA1 channel (Homo sapiens (Human), UniProt O75762)
Assay: hTRPA1 CHO Ca2+ FLIPR Tetra assay, block of cinnamaldehyde induced calcium influx
Format: cell-based
Settings: for IC50: CHO cells expressing TRPA1, Hill coefficient fixed to 1.5; for TRPA1 IC50 compared with 3-azabicyclo[3.1.0]hexene linker and cyclobutylene linker analogues: bicyclo[3.1.0]hexene linker compounds versus same-substituent analogues (compounds 16, 191; 26, 1)
Outline: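 IC50 values come from fixed-Hill fits of inhibition of cinnamaldehyde-induced (about EC50 level) calcium influx measured by FLIPR Tetra. Before agonist, TRPA1-expressing CHO cells loaded with calcium indicator were exposed to compound for 10 or 90 min at room temperature in HEPES-buffered HBSS, pH 7.4, with 0.02% BSA.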

[1] = read-out: hTRPA1 IC50 (10 min), compounds incubated 10 minutes at room temperature before cinnamaldehyde agonist
[2] = read-out: hTRPA1 IC50 (90 min), compounds incubated 90 minutes at room temperature before cinnamaldehyde agonist

human TRPA1 channel, sequence (O75762 whole entry): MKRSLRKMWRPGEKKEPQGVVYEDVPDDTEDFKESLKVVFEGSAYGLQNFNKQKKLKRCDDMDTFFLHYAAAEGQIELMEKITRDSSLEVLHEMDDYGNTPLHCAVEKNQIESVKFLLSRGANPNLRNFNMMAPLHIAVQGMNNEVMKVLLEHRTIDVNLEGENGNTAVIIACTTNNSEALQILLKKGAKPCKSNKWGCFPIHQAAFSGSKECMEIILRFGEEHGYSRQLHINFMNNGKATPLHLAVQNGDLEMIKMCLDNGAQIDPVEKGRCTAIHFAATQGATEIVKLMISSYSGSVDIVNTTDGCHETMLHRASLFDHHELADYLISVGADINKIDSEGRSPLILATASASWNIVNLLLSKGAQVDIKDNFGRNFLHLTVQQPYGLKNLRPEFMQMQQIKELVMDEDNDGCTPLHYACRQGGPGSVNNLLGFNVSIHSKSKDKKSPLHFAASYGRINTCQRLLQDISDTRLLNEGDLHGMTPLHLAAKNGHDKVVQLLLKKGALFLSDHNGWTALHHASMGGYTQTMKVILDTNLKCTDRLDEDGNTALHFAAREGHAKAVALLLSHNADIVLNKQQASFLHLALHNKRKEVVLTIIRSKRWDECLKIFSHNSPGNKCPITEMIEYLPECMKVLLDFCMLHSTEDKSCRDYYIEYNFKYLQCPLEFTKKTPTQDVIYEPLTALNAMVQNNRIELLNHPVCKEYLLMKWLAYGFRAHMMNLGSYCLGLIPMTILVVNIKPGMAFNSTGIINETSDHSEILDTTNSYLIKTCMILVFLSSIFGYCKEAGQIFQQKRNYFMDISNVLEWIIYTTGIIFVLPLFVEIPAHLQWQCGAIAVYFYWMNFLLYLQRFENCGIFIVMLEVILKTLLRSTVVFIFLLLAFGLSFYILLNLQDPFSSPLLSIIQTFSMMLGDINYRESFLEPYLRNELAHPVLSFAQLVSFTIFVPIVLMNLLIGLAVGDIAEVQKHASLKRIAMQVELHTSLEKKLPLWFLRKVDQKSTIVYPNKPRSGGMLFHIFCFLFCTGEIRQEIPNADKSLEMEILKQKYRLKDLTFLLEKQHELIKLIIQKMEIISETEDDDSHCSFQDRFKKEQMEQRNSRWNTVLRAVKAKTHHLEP

Row | SMILES | IC50 [1] [nM] | IC50 [2] [nM] | TRPA1 IC50 compared with 3-azabicyclo[3.1.0]hexene linker and cyclobutylene linker analogues
1 | O=c1c2cccnc2ncn1Cc1nc([C@H]2[C@@H]3C=C(c4cc(Cl)ccn4)C[C@@H]32)no1 [Example Compound 161, 3-((3-((1S,5S,6R)-3-(4-chloropyridin-2-yl)bicyclo[3.1.0]hex-2-en-6-yl)-1,2,4-oxadiazol-5-yl)methyl)pyrido[2,3-d]pyrimidin-4(3H)-one] | 315 | 200 | –
2 | O=c1c2cccnc2ncn1Cc1nc([C@@H]2[C@H]3C=C(c4cc(Cl)ccn4)C[C@H]32)no1 [Example Compound 162, 3-((3-((1R,5R,6S)-3-(4-chloropyridin-2-yl)bicyclo[3.1.0]hex-2-en-6-yl)-1,2,4-oxadiazol-5-yl)methyl)pyrido[2,3-d]pyrimidin-4(3H)-one] | 132 | 88 | –
3 | Cn1cc(-c2cc(Cl)cc(N3C[C@@H]4[C@H](C3)[C@H]4c3noc(Cn4cnc5ncn(C)c5c4=O)n3)c2)cn1 [Example Compound 163, 1-((3-((1R,5S,6r)-3-(3-chloro-5-(1-methyl-1H-pyrazol-4-yl)phenyl)-3-azabicyclo[3.1.0]hexan-6-yl)-1,2,4-oxadidzol-5-yl)methyl)-7-methyl-1,7-dihydro-6H-purin-6-one] | 71.3 | 23 | –
4 | Cc1ccnc2ncn(Cc3nc([C@H]4C[C@H](c5ccc(F)cc5)C4)no3)c(=O)c12 [Example Compound 164, 3-((3-((1r,3r)-3-(4-fluorophenyl)cyclobutyl)-1,2,4-oxadiazol-5-yl)methyl)-5-methylpyrido[2,3-d]pyrimidin-4(3H)-one] | 15.1 | – | –
5 | Cc1ccnc2ncn(Cc3nc([C@H]4[C@@H]5Oc6c(Cl)cccc6[C@@H]54)no3)c(=O)c12 [Example Compound 165, 3-((3-((1S,1aR,6bS)-3-chloro-1a,6b-dihydro-1H-cyclopropa[b]benzofuran-1-yl)-1,2,4-oxadiazol-5-yl)methyl)-5-methylpyrido[2,3-d]pyrimidin-4(3H)-one] | 22.2 | – | –
6 | Cc1cc(C#N)nc2ncn(Cc3nc([C@H]4C[C@](F)(c5ccc(F)cc5)C4)no3)c(=O)c12 [Example Compound 166, 3-((3-((1s,3s)-3-fluoro-3-(4-fluorophenyl)cyclobutyl)-1,2,4-oxadiazol-5-yl)methyl)-5-methyl-4-oxo-3,4-dihydropyrido[2,3-d]pyrimidine-7-carbonitrile] | 37.6 | – | –
7 | O=c1c2cccnc2cnn1Cc1nc([C@H]2[C@@H]3CN(c4cc(Cl)ccn4)C[C@@H]32)no1 [Example Compound 167, 6-((3-((1R,5S,6r)-3-(4-chloropyridin-2-yl)-3-azabicyclo[3.1.0]hexan-6-yl)-1,2,4-oxadiazol-5-yl)methyl)pyrido[2,3-d]pyridazin-5(6H)-one] | 51.1 | 46 | –
8 | Cc1ccnc2ncn(Cc3nc([C@H]4[C@@H]5CN(c6cc(Cl)ccn6)C[C@@H]54)no3)c(=O)c12 [Example Compound 168, 3-((3-((1R,5S,6r)-3-(4-chloropyridin-2-yl)-3-azabicyclo[3.1.0]hexan-6-yl)-1,2,4-oxadiazol-5-yl)methyl)-5-methylpyrido[2,3-d]pyrimidin-4(3H)-one] | 50.8 | – | –
9 | Cn1cc(-c2cccc(N3C[C@@H]4[C@H](C3)[C@H]4c3noc(Cn4ncc5ncccc5c4=O)n3)c2)cn1 [Example Compound 169, 6-((3-((1R,5S,6r)-3-(3-(1-methyl-1H-pyrazol-4-yl)phenyl)-3-azabicyclo[3.1.0]hexan-6-yl)-1,2,4-oxadiazol-5-yl)methyl)pyrido[2,3-d]pyridazin-5(6H)-one] | 43 | 41 | –
10 | Cn1cnc2ncn(Cc3nc([C@H]4[C@@H]5CN(c6cc(Cl)c(F)cn6)C[C@@H]54)no3)c(=O)c21 [Example Compound 170, 1-((3-((1R,5S,6r)-3-(4-chloro-5-fluoropyridin-2-yl)-3-azabicyclo[3.1.0]hexan-6-yl)-1,2,4-oxadiazol-5-yl)methyl)-7-methyl-1,7-dihydro-6H-purin-6-one] | 233 | 130 | –
11 | Cn1cnc2ncn(Cc3nc([C@H]4[C@@H]5CN(c6cccc(C#N)n6)C[C@@H]54)no3)c(=O)c21 [Example Compound 171, 6-((1R,5S,6r)-6-(5-((7-methyl-6-oxo-6,7-dihydro-1H-purin-1-yl)methyl)-1,2,4-oxadiazol-3-yl)-3-azabicyclo[3.1.0]hexan-3-yl)picolinonitrile] | 271 | 89 | –
12 | Cn1cnc2ncn(Cc3nc([C@@H]4CC[C@@H](c5ccc(F)cc5)C4)no3)c(=O)c21 [Example Compound 172, 1-((3-((1R,3R)-3-(4-fluorophenyl)cyclopentyl)-1,2,4-oxadiazol-5-yl)methyl)-7-methyl-1,7-dihydro-6H-purin-6-one] | 26.6 | 18 | –
13 | Cn1c(=O)ccc2ncn(Cc3nc([C@H]4[C@@H]5CN(c6cccc(Cl)c6)C[C@@H]54)no3)c(=O)c21 [Example Compound 173, 3-((3-((1R,5S,6r)-3-(3-chlorophenyl)-3-azabicyclo[3.1.0]hexan-6-yl)-1,2,4-oxadiazol-5-yl)methyl)-5-methyl-3,5-dihydropyrido[3,2-d]pyrimidine-4,6-dione] | 3.97 | – | –
14 | Cn1c(=O)ccc2ncn(Cc3nc([C@H]4[C@@H]5CN(c6cc(Cl)ccn6)C[C@@H]54)no3)c(=O)c21 [Example Compound 174, 3-((3-((1R,5S,6r)-3-(4-chloropyridin-2-yl)-3-azabicyclo[3.1.0]hexan-6-yl)-1,2,4-oxadiazol-5-yl)methyl)-5-methyl-3,5-dihydropyrido[3,2-d]pyrimidine-4,6-dione] | 60.6 | 50 | –
15 | Cn1cnc2ncn(Cc3nc([C@H]4[C@@H]5CN(c6ccnc(F)c6)C[C@@H]54)no3)c(=O)c21 [Example Compound 175, 1-((3-((1R,5S,6r)-3-(2-fluoropyridin-4-yl)-3-azabicyclo[3.1.0]hexan-6-yl)-1,2,4-oxadiazol-5-yl)methyl)-7-methyl-1,7-dihydro-6H-purin-6-one] | 420 | 73 | –
16 | Cn1cnc2ncn(Cc3nc([C@H]4C[C@H](Oc5cccc(F)c5)C4)no3)c(=O)c21 [Example Compound 176, 1-((3-((1r,3r)-3-(3-fluorophenoxy)cyclobutyl)-1,2,4-oxadiazol-5-yl)methyl)-7-methyl-1,7-dihydro-6H-purin-6-one] | 24.3 | – | –
17 | Cn1cnc2ncn(Cc3nc([C@H]4C[C@H](Oc5ccc(F)cc5)C4)no3)c(=O)c21 [Example Compound 177, 1-((3-((1r,3r)-3-(4-fluorophenoxy)cyclobutyl)-1,2,4-oxadiazol-5-yl)methyl)-7-methyl-1,7-dihydro-6H-purin-6-one] | 40.1 | – | –
18 | Cn1cnc2ncn(Cc3nc([C@H]4C[C@H](Oc5cccc(C#N)c5)C4)no3)c(=O)c21 [Example Compound 178, 3-((1r,3r)-3-(5-((7-methyl-6-oxo-6,7-dihydro-1H-purin-1-yl)methyl)-1,2,4-oxadiazol-3-yl)cyclobutoxy)benzonitrile] | 81.5 | – | –
19 | Cn1cc(-c2ccc(N3C[C@@H]4[C@H](C3)[C@H]4c3noc(Cn4cnc5ncn(C)c5c4=O)n3)cc2)cn1 [Example Compound 179, 7-methyl-1-((3-((1R,5S,6r)-3-(4-(1-methyl-1H-pyrazol-4-yl)phenyl)-3-azabicyclo[3.1.0]hexan-6-yl)-1,2,4-oxadiazol-5-yl)methyl)-1,7-dihydro-6H-purin-6-one] | 134 | 67 | –
20 | O=c1c2cccnc2ncn1Cc1nc([C@H]2[C@@H]3C=C(c4cccc(Cl)c4)C[C@@H]32)no1 [Example Compound 180, 3-((3-((1S,5S,6R)-3-(3-chlorophenyl)bicyclo[3.1.0]hex-2-en-6-yl)-1,2,4-oxadiazol-5-yl)methyl)pyrido[2,3-d]pyrimidin-4(3H)-one] | 23.3 | 24 | –
21 | O=c1c2cccnc2ncn1Cc1nc([C@@H]2[C@H]3C=C(c4cccc(Cl)c4)C[C@H]32)no1 [Example Compound 181, 3-((3-((1R,5R,6S)-3-(3-chlorophenyl)bicyclo[3.1.0]hex-2-en-6-yl)-1,2,4-oxadiazol-5-yl)methyl)pyrido[2,3-d]pyrimidin-4(3H)-one] | 21.8 | 21 | –
22 | Cn1cnc2ncn(Cc3nc([C@H]4[C@@H]5CN(c6cc(F)ccn6)C[C@@H]54)no3)c(=O)c21 [Example Compound 182, 1-((3-((1R,5S,6r)-3-(4-fluoropyridin-2-yl)-3-azabicyclo[3.1.0]hexan-6-yl)-1,2,4-oxadiazol-5-yl)methyl)-7-methyl-1,7-dihydro-6H-purin-6-one] | 194 | 43 | –
23 | O=c1c2cccnc2ncn1Cc1nc([C@H]2[C@@H]3CN(c4cc(Cl)ccn4)C[C@@H]32)no1 [Example Compound 183, 3-((3-((1R,5S,6r)-3-(4-chloropyridin-2-yl)-3-azabicyclo[3.1.0]hexan-6-yl)-1,2,4-oxadiazol-5-yl)methyl)pyrido[2,3-d]pyrimidin-4(3H)-one] | 65.1 | 52 | –
24 | Cn1cnc2ncn(Cc3nc([C@H]4[C@@H]5C=C(c6cccc(Cl)c6)C[C@@H]54)no3)c(=O)c21 [Example Compound 184, 1-((3-((1S,5S,6R)-3-(3-chlorophenyl)bicyclo[3.1.0]hex-2-en-6-yl)-1,2,4-oxadiazol-5-yl)methyl)-7-methyl-1,7-dihydro-6H-purin-6-one] | 8.83 | 1.8 | improved TRPA1 IC50 values
25 | Cn1cnc2ncn(Cc3nc([C@@H]4[C@H]5C=C(c6cccc(Cl)c6)C[C@H]54)no3)c(=O)c21 [Example Compound 185, 1-((3-((1R,5R,6S)-3-(3-chlorophenyl)bicyclo[3.1.0]hex-2-en-6-yl)-1,2,4-oxadiazol-5-yl)methyl)-7-methyl-1,7-dihydro-6H-purin-6-one] | 18.5 | 7.8 | improved TRPA1 IC50 values
